Common to all, as to assay: cAMP functional assay (HTRF) in HEK293 cells in presence of 0.1% casein
Common to all, as to assay type: cell-based
On the technique in general: Time-resolved FRET reads energy transfer from a long-lived donor to a nearby acceptor.

The target of assay [1] is T1, human GLP-1 receptor (GLP-1R) (Homo sapiens, UniProt P43220).
T1 construct: expressed in transfected cells; host or cells: HEK293
Conditions: HEK293 cells expressing human GLP-1R, geometric mean, read-out: hGLP1R cAMP Rel EC50 nM (SEM, n). How it is done: (§1) Each receptor over-expressing cell line (20 μl) is treated with the test peptide in DMEM (Gibco Cat #31053) supplemented with 0.1% Casein (Sigma Cat #C4765), 250 μM IBMX, 1× GlutaMAX™ (Gibco Cat #35050), and 20 mM HEPES (HyClone Cat #SH30237.01) in a 20 μl assay volume. After incubating for 60 minutes at room temperature, the resulting increase in intracellular CAMP is quantitatively determined using the CisBio CAMP Dynamic 2 HTRF Assay Kit (62AM4PEJ). The Lysis buffer containing cAMP-d2 conjugate (20 μl) and the antibody anti-cAMP-Eu3+-Cryptate (20 μl) are then added to determine the cAMP level. After incubating 60 minutes at room temperature, HTRF signal is detected with an Envision 2104 plate reader (PerkinElmer). Fluorescent emission at 620 nm and at 665 nm is measured and the ratio between 620 nm and at 665 nm is calculated and then are converted to nM cAMP per well using a cAMP standard curve. Dose response curves of compounds are plotted as the percentage of stimulation normalized to minimum (buffer only) and maximum (maximum concentration of each control ligand) values and analyzed using a four parameter non-linear regression fit with a variable slope (Genedata Screener 13). EC50 is the concentration of compound causing half-maximal simulation in a dose response curve. A relative EC50 value is derived by non-linear regression analysis using the percent maximal response vs, the concentration of peptide added, fitted to a four-parameter logistic equation.
(§2) Intracellular cAMP levels are determined by extrapolation using a standard curve. Dose response curves of compounds are plotted as the percentage of stimulation normalized to minimum (buffer only) and maximum (maximum concentration of each control ligand) values and analyzed using a four-parameter non-linear regression fit with a variable slope (Genedata Screener 13). EC50 is the concentration of compound causing half-maximal simulation in a dose response curve. Each relative EC50 value for the geometric mean calculation is determined from a curve fitting.
(§3) Concentration response curves of compounds are plotted as the percentage of stimulation normalized to minimum (buffer only) and maximum (maximum concentration of each control ligand) values and analyzed using a four-parameter non-linear regression fit with a variable slope (Genedata Screener 13). EC50 is the concentration of compound causing half-maximal simulation in a dose response curve. […] The standard error of the mean is reported:
(§4) [formula] • The log transform accounts for the EC50 values falling on a multiplicative, rather than an arithmetic scale.
(§5) For illustration, as shown by Example 1, the peptide is tested in 8 runs of the hGIPR CAMP assay. […] Accordingly, each Example will use the geometric mean of those values to normalize the Example assay runs.

Assay [2] addresses T2, human glucagon receptor (GcgR) (Homo sapiens, UniProt P47871).
T2 construct: expressed in transfected cells; host or cells: HEK293
As to conditions: HEK293 cells expressing human GcgR, geometric mean, read-out: hGcgR cAMP Rel EC50 nM (SEM, n). How it is done: as §1, §2, §3, §4, §5

In assay [3] the target is T3, human glucose-dependent insulinotropic peptide receptor (GIPR) (Homo sapiens, UniProt P48546).
T3 construct: expressed in transfected cells; host or cells: HEK293
T3 sequence (P48546 22-466): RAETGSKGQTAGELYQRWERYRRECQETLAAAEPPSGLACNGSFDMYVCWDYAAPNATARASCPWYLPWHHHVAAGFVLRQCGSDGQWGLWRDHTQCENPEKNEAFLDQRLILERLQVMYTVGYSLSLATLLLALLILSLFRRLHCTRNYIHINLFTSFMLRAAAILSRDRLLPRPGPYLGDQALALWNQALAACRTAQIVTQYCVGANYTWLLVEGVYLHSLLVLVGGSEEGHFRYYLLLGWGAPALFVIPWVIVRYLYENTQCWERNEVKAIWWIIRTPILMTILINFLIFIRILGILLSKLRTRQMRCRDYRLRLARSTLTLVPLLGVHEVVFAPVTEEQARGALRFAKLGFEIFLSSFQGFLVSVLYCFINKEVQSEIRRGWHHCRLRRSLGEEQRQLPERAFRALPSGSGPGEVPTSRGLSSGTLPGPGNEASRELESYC
Conditions: HEK293 cells expressing human GIPR, geometric mean, read-out: hGIPR cAMP Rel EC50 nM (SEM, n). How it is done: as §1, §2, §3, §4, §5

Drawing on patent US12723063B2, “GIPR-agonist compounds” (Eli Lilly and Company, priority 2019, dated 2026), this text covers EC50 for five compounds.

*1 amine or outer side, *2 acyl side, *3 side chain or, on linkers, in order; H or OH if unused. Where a SMILES comes first, the peptide text is derived from it. Side-chain parts run from the residue outwards. [ ]: non-standard residue; d: D form. The star is where a group is joined. C20 diacid = O=C(O)CCCCCCCCCCCCCCCCCCC(=O)*; γGlu = O=C(O)[C@H](CCC(=O)[*:2])N[*:1]; AEEA = NCCOCCOCC(=O)O; Aib = CC(C)(N)C(=O)O

T2 sequence (P47871 26-477): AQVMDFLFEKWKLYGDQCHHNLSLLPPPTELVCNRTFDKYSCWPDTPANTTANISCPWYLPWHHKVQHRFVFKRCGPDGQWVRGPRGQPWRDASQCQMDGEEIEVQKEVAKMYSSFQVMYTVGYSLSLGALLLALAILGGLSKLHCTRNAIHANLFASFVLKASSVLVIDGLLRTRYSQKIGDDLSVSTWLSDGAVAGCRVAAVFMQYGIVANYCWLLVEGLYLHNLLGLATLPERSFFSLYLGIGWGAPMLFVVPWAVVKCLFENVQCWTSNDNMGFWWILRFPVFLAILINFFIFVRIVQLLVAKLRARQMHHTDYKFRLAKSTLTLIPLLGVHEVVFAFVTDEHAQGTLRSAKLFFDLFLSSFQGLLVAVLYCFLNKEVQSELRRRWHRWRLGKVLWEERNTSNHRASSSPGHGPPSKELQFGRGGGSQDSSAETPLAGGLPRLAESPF
T1 sequence (P43220 24-463): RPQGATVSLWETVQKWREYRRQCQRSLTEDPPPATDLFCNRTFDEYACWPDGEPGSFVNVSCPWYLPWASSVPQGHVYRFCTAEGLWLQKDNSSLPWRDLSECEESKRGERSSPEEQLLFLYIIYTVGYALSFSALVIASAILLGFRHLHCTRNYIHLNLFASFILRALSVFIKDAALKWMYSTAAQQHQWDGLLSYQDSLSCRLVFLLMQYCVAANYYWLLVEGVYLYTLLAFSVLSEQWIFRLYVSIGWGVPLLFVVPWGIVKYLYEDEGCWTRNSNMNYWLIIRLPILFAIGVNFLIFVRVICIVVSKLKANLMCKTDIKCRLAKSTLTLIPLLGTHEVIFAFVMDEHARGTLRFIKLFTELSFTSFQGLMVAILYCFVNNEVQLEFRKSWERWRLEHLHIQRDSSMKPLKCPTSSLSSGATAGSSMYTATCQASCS

One may read the EC50 as the concentration giving half of the maximal effect. Consider `CC[C@H](C)[C@H](NC(=O)[C@H](CCCN)NC(=O)[C@H](CC(=O)O)NC(=O)[C@H](CC(C)C)NC(=O)[C@](C)(CC(C)C)NC(=O)[C@@H](NC(=O)[C@H](CO)NC(=O)[C@H](Cc1ccc(O)cc1)NC(=O)[C@H](CC(=O)O)NC(=O)[C@H](CO)NC(=O)[C@@H](NC(=O)[C@H](Cc1ccccc1)NC(=O)[C@@H](NC(=O)CNC(=O)[C@H](CCC(=O)O)NC(=O)C(C)(C)NC(=O)[C@@H](N)Cc1ccc(O)cc1)[C@@H](C)O)[C@@H](C)CC)[C@@H](C)CC)C(=O)N[C@@H](Cc1c[nH]cn1)C(=O)N[C@@H](CCC(N)=O)C(=O)NC(C)(C)C(=O)N[C@@H](CC(=O)O)C(=O)N[C@@H](Cc1ccccc1)C(=O)N[C@H](C(=O)N[C@@H](CCC(=O)O)C(=O)N[C@@H](Cc1ccc(O)cc1)C(=O)N[C@@H](CCCCNC(=O)COCCOCCNC(=O)COCCOCCNC(=O)CC[C@H](NC(=O)CCCCCCCCCCCCCCCCCCC(=O)O)C(=O)O)C(=O)N[C@@H](CC(C)C)C(=O)N[C@@H](CCC(=O)O)C(=O)NCC(=O)NCC(=O)N1CCC[C@H]1C(=O)N[C@@H](CO)C(=O)N[C@@H](CO)C(=O)NCC(=O)N[C@@H](C)C(=O)N1CCC[C@H]1C(=O)N1CCC[C@H]1C(=O)N1CCC[C@H]1C(=O)N[C@@H](CO)C(N)=O)C(C)C` [Example 6], for which the figures for the EC50 in assay [1], in assay [2] and in assay [3] were above 5000 nM, above 5000 nM and 0.0176 nM, respectively.

Turning to `CC[C@H](C)[C@H](NC(=O)[C@H](CCCN)NC(=O)[C@H](CC(=O)O)NC(=O)[C@H](CC(C)C)NC(=O)[C@](C)(CC(C)C)NC(=O)[C@@H](NC(=O)[C@H](CO)NC(=O)[C@H](Cc1ccc(O)cc1)NC(=O)[C@H](CC(=O)O)NC(=O)[C@H](CO)NC(=O)[C@@H](NC(=O)[C@H](Cc1ccccc1)NC(=O)[C@@H](NC(=O)CNC(=O)[C@H](CCC(=O)O)NC(=O)C(C)(C)NC(=O)[C@@H](N)Cc1ccc(O)cc1)[C@@H](C)O)[C@@H](C)CC)[C@@H](C)CC)C(=O)N[C@@H](Cc1c[nH]cn1)C(=O)N[C@@H](CCC(N)=O)C(=O)NC(C)(C)C(=O)N[C@@H](CCC(=O)O)C(=O)N[C@@H](Cc1ccccc1)C(=O)N[C@H](C(=O)N[C@H](CCC(=O)O)C(=O)N[C@@H](Cc1ccc(O)cc1)C(=O)N[C@@H](CCCCNC(=O)COCCOCCNC(=O)COCCOCCNC(=O)CC[C@H](NC(=O)CCCCCCCCCCCCCCCCC(=O)O)C(=O)O)C(=O)N[C@@H](CC(C)C)C(=O)N[C@@H](CCC(=O)O)C(=O)NCC(=O)NCC(=O)N1CCC[C@H]1C(=O)N[C@@H](CO)C(=O)N[C@@H](CO)C(=O)NCC(=O)N[C@@H](C)C(=O)N1CCC[C@H]1C(=O)N1CCC[C@H]1C(=O)N1CCC[C@H]1C(=O)N[C@@H](CO)C(N)=O)C(C)C` [Example 7], the figures for the EC50 in assay [1], in assay [2] and in assay [3] were above 5000 nM, above 5000 nM and 0.0219 nM, respectively.

With `CC[C@H](C)[C@H](NC(=O)[C@H](CO)NC(=O)[C@H](Cc1ccc(O)cc1)NC(=O)[C@H](CC(=O)O)NC(=O)[C@H](CO)NC(=O)[C@@H](NC(=O)[C@H](Cc1ccccc1)NC(=O)[C@@H](NC(=O)CNC(=O)[C@H](CCC(=O)O)NC(=O)C(C)(C)NC(=O)[C@@H](N)Cc1ccc(O)cc1)[C@@H](C)O)[C@@H](C)CC)C(=O)N[C@@H](CC(C)C)C(=O)N[C@@H](CC(C)C)C(=O)N[C@@H](CC(=O)O)C(=O)N[C@@H](CCCCN)C(=O)N[C@@H](CCCCNC(=O)COCCOCCNC(=O)COCCOCCNC(=O)CC[C@H](NC(=O)CCCCCCCCCCCCCCCCCCC(=O)O)C(=O)O)C(=O)N[C@@H](C)C(=O)N[C@@H](CCC(N)=O)C(=O)NC(C)(C)C(=O)N[C@@H](CC(=O)O)C(=O)N[C@@H](Cc1ccccc1)C(=O)N[C@H](C(=O)N[C@@H](CC(N)=O)C(=O)N[C@@H](Cc1c[nH]c2ccccc12)C(=O)N[C@@H](CC(C)C)C(=O)N[C@@H](CC(C)C)C(=O)N[C@@H](C)C(=O)N[C@@H](CCC(N)=O)C(=O)NCC(=O)N1CCC[C@H]1C(=O)N[C@@H](CO)C(=O)N[C@@H](CO)C(=O)NCC(=O)N[C@@H](C)C(=O)N1CCC[C@H]1C(=O)N1CCC[C@H]1C(=O)N1CCC[C@H]1C(=O)N[C@@H](CO)C(N)=O)C(C)C` [Example 8] (H-Y[Aib]EGTFISDYSILLDKK([AEEA-AEEA-γGlu-C20 diacid])AQ[Aib]DFVNWLLAQGPSSGAPPPS-NH2), the EC50 in assay [1] is above 5000 nM; in assay [2], 295 nM; in assay [3], 0.0268 nM.

Regarding `CC[C@H](C)[C@H](NC(=O)[C@H](CO)NC(=O)[C@H](Cc1ccc(O)cc1)NC(=O)[C@H](CC(=O)O)NC(=O)[C@H](CO)NC(=O)[C@@H](NC(=O)[C@H](Cc1ccccc1)NC(=O)[C@@H](NC(=O)CNC(=O)[C@H](CCC(=O)O)NC(=O)[C@@H](C)NC(=O)[C@@H](N)Cc1ccc(O)cc1)[C@@H](C)O)[C@@H](C)CC)C(=O)N[C@@H](CC(C)C)C(=O)N[C@@H](CC(C)C)C(=O)N[C@@H](CC(=O)O)C(=O)N[C@@H](CCCCN)C(=O)N[C@@H](CCCCNC(=O)COCCOCCNC(=O)COCCOCCNC(=O)CC[C@H](NC(=O)CCCCCCCCCCCCCCCCCCC(=O)O)C(=O)O)C(=O)N[C@@H](Cc1c[nH]cn1)C(=O)N[C@@H](CCC(N)=O)C(=O)NC(C)(C)C(=O)N[C@@H](CC(=O)O)C(=O)N[C@@H](Cc1ccccc1)C(=O)N[C@H](C(=O)N[C@@H](CC(N)=O)C(=O)N[C@@H](Cc1c[nH]c2ccccc12)C(=O)N[C@@H](CC(C)C)C(=O)N[C@@H](CC(C)C)C(=O)N[C@@H](C)C(=O)N[C@@H](CCC(N)=O)C(=O)NCC(=O)N1CCC[C@H]1C(=O)N[C@@H](CO)C(=O)N[C@@H](CO)C(=O)NCC(=O)N[C@@H](C)C(=O)N1CCC[C@H]1C(=O)N1CCC[C@H]1C(=O)N1CCC[C@H]1C(=O)N[C@@H](CO)C(N)=O)C(C)C` [Example 9] (H-Y[dA]EGTFISDYSILLDKK([AEEA-AEEA-γGlu-C20 diacid])HQ[Aib]DFVNWLLAQGPSSGAPPPS-NH2), the EC50 in assay [1] was above 100 nM; in assay [2] it was above 5000 nM; in assay [3] it was 0.165 nM.

Take `CC[C@H](C)[C@H](NC(=O)[C@H](CO)NC(=O)[C@H](Cc1ccc(O)cc1)NC(=O)[C@H](CC(=O)O)NC(=O)[C@H](CO)NC(=O)[C@@H](NC(=O)[C@H](Cc1ccccc1)NC(=O)[C@@H](NC(=O)CNC(=O)[C@H](CCC(=O)O)NC(=O)[C@@H](C)NC(=O)[C@@H](N)Cc1ccc(O)cc1)[C@@H](C)O)[C@@H](C)CC)C(=O)N[C@@H](CC(C)C)C(=O)N[C@@H](CC(C)C)C(=O)N[C@@H](CC(=O)O)C(=O)N[C@@H](CCCCN)C(=O)N[C@@H](CCCCNC(=O)COCCOCCNC(=O)COCCOCCNC(=O)CC[C@H](NC(=O)CCCCCCCCCCCCCCCCCCC(=O)O)C(=O)O)C(=O)N[C@@H](Cc1c[nH]cn1)C(=O)N[C@@H](CCC(N)=O)C(=O)N[C@@H](CCC(N)=O)C(=O)N[C@@H](CC(=O)O)C(=O)N[C@@H](Cc1ccccc1)C(=O)N[C@H](C(=O)N[C@@H](CC(N)=O)C(=O)N[C@@H](Cc1c[nH]c2ccccc12)C(=O)N[C@@H](CC(C)C)C(=O)N[C@@H](CC(C)C)C(=O)N[C@@H](C)C(=O)NCC(=O)NCC(=O)N1CCC[C@H]1C(=O)N[C@@H](CO)C(=O)N[C@@H](CO)C(=O)NCC(=O)N[C@@H](C)C(=O)N1CCC[C@H]1C(=O)N1CCC[C@H]1C(=O)N1CCC[C@H]1C(=O)N[C@@H](CO)C(N)=O)C(C)C` [Example 10] (H-Y[dA]EGTFISDYSILLDKK([AEEA-AEEA-γGlu-C20 diacid])HQQDFVNWLLAGGPSSGAPPPS-NH2): the EC50 in assay [1] is above 100 nM; in assay [2], above 5000 nM; in assay [3], 0.611 nM.
